According to paper PMC7578061, “Potent inhibition of tumour cell proliferation and immunoregulatory function by mitochondria-targeted atovaquone” (Scientific Reports, 2020):
Values belong to the compound of their own block, whether it stands above or below them.

What was measured:
MiaPaCa-2 cells = assay: IncuCyte cell proliferation (cell confluence), MiaPaCa-2; type: cell-based, human; details: for IC50: Homo sapiens, MIA PaCa-2, MiaPaCa-2 cells, confluence as control groups reach 98% confluency, read-out: IC50, inhibition of cell proliferation (cell confluence); for Antiproliferative effect compared with corresponding Mito-ATO analogs: MiaPaCa-2 cells, Figure S3
Experimental: (§1) The following cell lines were obtained from the American Type Culture Collection (Manassas, VA), where they were regularly authenticated: MiaPaCa-2 (ATCC#CRL-1420, human pancreatic cancer), MDA-MB-231 (ATCC#HTB-26, human breast cancer), A549 (ATCC#CCL-185, human lung cancer), LLC (ATCC#CLR-1642, mouse lung cancer). LKR13 mouse lung cancer cells were a gift from Dr. Jonathan M. Kurie (MD Anderson Cancer Center, Houston, TX)[30]. All cell lines were grown at 37 °C in 5% CO2. MiaPaCa-2 and MDA-MB-231 cells were maintained in DMEM medium (Thermo Fisher Scientific, #11965) supplemented with 10% foetal bovine serum. A549, LLC, and LKR13 cells were maintained in RPMI 1640 medium (Thermo Fisher Scientific, #11875), supplemented with 10% foetal bovine serum. All cells were stored in liquid nitrogen and used within 20 passages after thawing.
The IncuCyte Live-Cell Imaging system (IncuCyte Essen Bioscience Inc., Ann Arbor, MI) was used to monitor cell proliferation[11]–[13]. As shown in previous publications[11],[12], this imaging system is probe-free and noninvasive, and enables continuous monitoring of cell confluence over several days. The increase in the percentage of cell confluence was used as a surrogate marker of cell proliferation. In a 96-well plate, cells were plated at 1,000 cells per well in triplicates and left to adhere overnight.

[1] = test system: A549 human lung cancer cells; assay: IncuCyte cell proliferation (cell confluence), A549; type: cell-based; details: read-out: IC50, inhibition of cell proliferation (cell confluence)
Description: (§2) Previous reports provide evidence for enhanced uptake of several mitochondria-targeted cationic agents into cancer cells as compared with non-transformed control cells[11]–[14].
as §1
(§3) The IncuCyte Live-Cell Imaging system (IncuCyte Essen Bioscience Inc., Ann Arbor, MI) was used to monitor cell proliferation[11]–[13]. As shown in previous publications[11],[12], this imaging system is probe-free and noninvasive, and enables continuous monitoring of cell confluence over several days. […]

[2] = test system: CD4+ T cells from SMARTA triple reporter mice; assay: In vitro differentiation of CD4+ T regulatory cells, flow cytometry; type: cell-based, mouse; details: six days of culture; for Treg differentiation and/or survival: up to 60 µM; for Foxp3+ Treg differentiation and/or survival: varying concentrations; for Teff cell IFNγ production: dose-dependent
Description: Recent reports indicate that selective targeting and inhibiting of mitochondrial complex III mitigate and reverse immunosuppression by Treg cells, promoting the function of Teff cells[15],[17]. […] After six days, cells were stained to assess viability, phenotype, and function using flow cytometry.
Figure 5 In vitro differentiation of CD4^+ T regulatory cells under varying concentrations of Mito-ATOs and controls. After six days of culture, cells were stained for flow cytometry analysis. (left) Live/dead staining to assess the percentage of live CD4 + T cells within the lymphocyte gate. (middle) Teff cell function is shown as the frequency of IFNγ-YFP positive cells within the live CD4^+ T cells. (right) The percentage of Treg cells is shown as the frequency of FoxP3^+CD25^+ cells within the live CD4^+ T cells. […] I assigned them to Mito10-ATO from the label under the bar charts above. / Panel A contour plots: no measure is printed with the gate percentages. Only the axes CD25 and FoxP3 are printed.
To differentiate CD4^+ T cells into a T regulatory cell phenotype, splenocytes from SMARTA triple-reporter mice were processed and the red blood cell lysed using an ACK (ammonium-chloride-potassium) lysis buffer. The cells were then activated with 1 μg/mL GP61–80 peptide (GenScript, Piscataway, NJ) and 5 ng/mL TGF-β1 (Shenandoah Biotechnology, Inc., Warwick, PA). […] Cells were cultured for six days and split once cells reached confluency; cells were replenished with IL-2 and compound accordingly. After six days in culture, cells were stained to assess the viability and phenotypic analysis via flow cytometry. LIVE/DEAD fixable violet or aqua dead cell stain (Invitrogen, Carlsbad, CA) was used to assess cell viability. The following antibodies were used for flow cytometry staining: PercP anti-mouse CD4 (clone: GK1.5; BioLegend, San Diego, CA), APC/Cy7 anti-mouse CD25 (clone: PC61; BioLegend), and PE anti-mouse FOXP3 (clone: FJK-16S; eBioscience, San Diego, CA). Flow cytometry data were acquired using a BD LSRII (BD Biosciences, CA) flow cytometer and analysed using FlowJo (Treestar, Inc., Ashland, OR).

[3] = test system: LKR13 mouse lung cancer cells; assay: IncuCyte cell proliferation (cell confluence), LKR13; type: cell-based; details: read-out: IC50, inhibition of cell proliferation (cell confluence)
Description: as §2, §1, §3

[4] = test system: LLC mouse lung cancer cells; assay: IncuCyte cell proliferation (cell confluence), LLC; type: cell-based; details: Lewis lung carcinoma, read-out: IC50, inhibition of cell proliferation (cell confluence)
Description: as §2, §1, §3

[5] = test system: MDA-MB-231 human breast cancer cells; assay: IncuCyte cell proliferation (cell confluence), MDA-MB-231; type: cell-based; details: MDA-MB-231 cells, read-out: IC50, inhibition of cell proliferation (cell confluence)
Description: as §2, §1, §3

[6] = target: T1, mitochondrial complex III (Homo sapiens, UniProt P00156+P47985); assay: Seahorse complex III-driven OCR in permeabilized MiaPaCa-2 cells; type: cell-based; parameters: carried out on acutely permeabilized cells in the presence of different mitochondrial substrates; endogenous in cells; host or cells: MiaPaCa-2 (A7); details: for IC50: MiaPaCa-2 cells treated 24 h, duroquinol, read-out: Complex III IC50 (AA-inhibitable OCR); for Inhibition of complex III-induced oxygen consumption: MiaPaCa-2 cells, 24 h
Experimental: The mitochondrial complex activities were assessed by measuring the oxygen consumption rate (OCR) using the Seahorse technique[6],[11]–[14]. MiaPaCa-2 cells were treated separately with Mito-ATO analogs at different concentrations for 24 h and OCR was measured.
Figure 2 Effects of Mito-ATO analogs on the oxygen consumption induced by mitochondrial complexes I and III. […] MiaPaCa-2 cells were treated with Mito-ATO for 24 h. Relative complex I (1.5 mM malate, 10 mM pyruvate, 10 mM ADP)-driven OCR (left) and relative complex III (0.5 mM duroquinol, 10 mM ADP)-driven OCR (right) were monitored by XF-96 analyser. Either Rot (complex I inhibitor) or antimycin A (AA, complex III inhibitor) was acutely added and OCR assayed immediately. […] Dashed lines represent the fitting curves used for determination of the IC50 values. (n.a., not applicable).
(§4) Mitochondrial bioenergetic function was measured in real time using the Seahorse XF 96 Extracellular Flux Analyzer (Agilent, North Billerica, MA)[11]–[13],[22]. The OCR-based assessment of mitochondrial complex activities was carried out on acutely permeabilized cells in the presence of different mitochondrial substrates, i.e., pyruvate/malate, for complex I and duroquinol for complex III[11],[14],[31],[32]. Rot, malonate, and antimycin A (Sigma-Aldrich, St. Louis, MO) were used as specific inhibitors of mitochondrial complexes I, II, and III, respectively. Briefly, cells that were intact after treatments were immediately permeabilized using the Seahorse XF Plasma Membrane Permeabilizer (Agilent). The mitochondrial complex I-driven OCR was assayed in mannitol and sucrose buffer[31] containing 10 mM pyruvate and 1.5 mM malate (substrates for complex I) and 10 mM malonate (which inhibits complex II activities). The mitochondrial complex III-driven OCR was assayed in mannitol and sucrose buffer containing 0.5 mM duroquinol (substrate for complex III) and 1 µM Rot and 10 mM malonate (which inhibit both complex I and II activities). The mitochondrial complex-dependent oxygen consumption (calculated as Rot- or antimycin A-inhibitable OCR equals basal OCR less OCR after Rot or antimycin A injection) was plotted against concentrations to determine the IC50 values.

[7] = target: T2, mitochondrial complex III (Mus musculus, UniProt P00158+Q9CR68); assay: Seahorse complex III-driven OCR in LKR13 cells; type: cell-based
T2 construct: carried out on acutely permeabilized cells in the presence of different mitochondrial substrates; endogenous in cells; host or cells: LLC (A11); LKR13 (A13)
Experimental: (§5) Dashed lines represent the fitting curves used for determination of the IC50 values.
as §4, with “The mitochondrial complex III-driven OCR was assayed in mannitol and sucrose buffer containing 0.5 mM duroquinol (substrate for complex III) and 1 µM Rot and 10 mM malonate (which inhibit both complex I and II activities).” left out

[8] = target: T1, mitochondrial complex III; assay: Seahorse complex III-driven OCR in A549 cells; type: cell-based; parameters: carried out on acutely permeabilized cells in the presence of different mitochondrial substrates; endogenous in cells; host or cells: A549 (A9)
Experimental: as §5
as §4, with “The mitochondrial complex III-driven OCR was assayed in mannitol and sucrose buffer containing 0.5 mM duroquinol (substrate for complex III) and 1 µM Rot and 10 mM malonate (which inhibit both complex I and II activities).” left out

[9] = target: T2, mitochondrial complex III; assay: Seahorse complex III-driven OCR in LLC cells; type: cell-based
Experimental: as §5
as §4, with “The mitochondrial complex III-driven OCR was assayed in mannitol and sucrose buffer containing 0.5 mM duroquinol (substrate for complex III) and 1 µM Rot and 10 mM malonate (which inhibit both complex I and II activities).” left out

IC50 (MiaPaCa-2 cells): 18000 nM
IC50 [1]: 16000 nM
IC50 [3]: 10000 nM
IC50 [4]: 13000 nM
IC50 [5]: 18000 nM
SMILES: O=C1C(O)=C([C@H]2CC[C@H](c3ccc(Cl)cc3)CC2)C(=O)c2ccccc21 [ATO, Atovaquone]
Treg differentiation and/or survival [2]: did not inhibit

SMILES: CCCCOC1=C([C@H]2CC[C@H](c3ccc(Cl)cc3)CC2)C(=O)c2ccccc2C1=O [Butyl-ATO]
Antiproliferative effect compared with corresponding Mito-ATO analogs (MiaPaCa-2 cells): much less effective
Treg differentiation and/or survival [2]: did not inhibit

SMILES: CCCCCCCCCCOC1=C([C@H]2CC[C@H](c3ccc(Cl)cc3)CC2)C(=O)c2ccccc2C1=O [Decyl-ATO]
Antiproliferative effect compared with corresponding Mito-ATO analogs (MiaPaCa-2 cells): much less effective
Treg differentiation and/or survival [2]: did not inhibit

IC50 [6]: 580 nM
IC50 (MiaPaCa-2 cells): 180 nM
SMILES: O=C1C(OCCCC[P+](c2ccccc2)(c2ccccc2)c2ccccc2)=C([C@H]2CC[C@H](c3ccc(Cl)cc3)CC2)C(=O)c2ccccc21 [Mito4-ATO]
Foxp3+ Treg differentiation and/or survival [2]: inhibited
Teff cell IFNγ production [2]: promoted

IC50 [6]: 780 nM
IC50 (MiaPaCa-2 cells): 220 nM
IC50 [7]: 2100 nM
IC50 [8]: 1000 nM
IC50 [1]: 140 nM
IC50 [3]: 500 nM
IC50 [9]: 500 nM
IC50 [4]: 460 nM
IC50 [5]: 230 nM
SMILES: O=C1C(OCCCCCCCCCC[P+](c2ccccc2)(c2ccccc2)c2ccccc2)=C([C@H]2CC[C@H](c3ccc(Cl)cc3)CC2)C(=O)c2ccccc21 [Mito10-ATO]
Foxp3+ Treg differentiation and/or survival [2]: inhibited
Teff cell IFNγ production [2]: promoted

SMILES: O=C1C(OCCCCCCCCCCCC[P+](c2ccccc2)(c2ccccc2)c2ccccc2)=C([C@H]2CC[C@H](c3ccc(Cl)cc3)CC2)C(=O)c2ccccc21 [Mito12-ATO]
Inhibition of complex III-induced oxygen consumption [6]: did not inhibit
Foxp3+ Treg differentiation and/or survival [2]: did not appreciably inhibit

Inhibition of complex III-induced oxygen consumption [6]: did not inhibit
IC50 (MiaPaCa-2 cells): 3000 nM
SMILES: O=C1C(OCCCCCCCCCCCCCCCC[P+](c2ccccc2)(c2ccccc2)c2ccccc2)=C([C@H]2CC[C@H](c3ccc(Cl)cc3)CC2)C(=O)c2ccccc21 [Mito16-ATO]
